Article PMC10002220, “In Vivo Reversal of P-Glycoprotein-Mediated Drug Resistance in a Breast Cancer Xenograft and in Leukemia Models Using a Novel, Potent, and Nontoxic Epicatechin EC31” (International Journal of Molecular Sciences, 2023)
Where two headings read alike, the source gives them in different places.

Key:
[1] = Pharmacokinetics of methylated catechin derivatives in plasma; assay type: in vivo, BALB/c mice; settings: BALB/c, mouse; for AUC(0-inf): read-out: AUC0-infinity (converted)
Experimental: Figure 4 Pharmacokinetics of methylated catechin derivatives and their effects on the PK of PTX. BALB/c mice were i.v. injected with 10 mg/kg or i.p. injected with 30 mg/kg of modulators. At 10, 30, 60, 180, 420, 840, and 1080 min postadministration, animals were sacrificed to collect their blood, and then the plasma concentration of modulator was determined using UPLC-MS/MS. The % of bioavailability of each modulator injected through i.p. injection route was calculated by comparing it to its plasma level when injected via i.v. injection. […] (E) Pharmacokinetic (PK) profiles of 4 potent methylated catechin derivatives were summarized. (F) The effect of modulators (GC51, EC31, or C25) on the PK of PTX was firstly determined through i.p. injection of modulator at 30 mg/kg 1 h prior to i.v. injection of 12 mg/kg PTX. At 10, 30, 60, 120, 240, and 420 min postadministration of PTX, animals were sacrificed. Plasma level of PTX was quantified through LC/MSMS. The dashed line indicates the corresponding EC50 of modulator in vitro for reversing PTX resistance. […] There were 3 mice at each time point. All pharmacokinetic parameters were calculated with the pharmacokinetic software Summit® PK solution. Two-tailed test was conducted for the AUC value of PTX alone and cotreatment. […] N.S. = not significant. / = not applicable.
In group 1, BALB/c mice were injected intravenously (i.v.) with 10 mg/kg of modulator, and their blood was collected at 10, 30, 60, 120, 240, and 480 min postadministration. In group 2, BALB/c mice were injected intraperitoneally (i.p.) with 30 mg/kg of modulator, and their blood was collected at 10, 30, 60, 180, 420, 840, and 1080 min postadministration.
The pharmacokinetics of PTX was studied with or without the coadministered modulator. PTX (12 mg/kg i.v.) alone was injected into the BALB/c mice. For the combination study, modulator (30 mg/kg i.p.) was injected 1 h before injecting PTX (12 mg/kg i.v.). The blood was collected at 10, 30, 60, 120, 240, and 420 min after PTX administration. Blood samples were spun at 14,000 rpm for 10 min at 4 °C to collect plasma supernatant. Plasma concentration of methylated catechin derivatives or PTX was determined through UPLC-QQQ-MS as described in Section 4.9. Pharmacokinetic parameters were analyzed with PK Solutions 2.0 (Summit Research Service, Ashland, OH, USA).

P-gp [2] = test: EC50 for reversing drug resistance in P388ADR cells (cell proliferation assay)
P-gp [3] = test: DOX efflux in P388ADR cells; assay type: cell-based, mouse; settings: 1 µM modulator; after 180 min of efflux; P388ADR preloaded with 20 µM DOX
Experimental: Figure 2 Effect of methylated catechin derivatives on intracellular DOX accumulation and DOX efflux in the P-gp-overexpressing cancer cells. […] Then, the cells were washed, and the intracellular DOX level was measured using flow cytometer. (A) LCC6MDR, (B) P388ADR, and (C) K562/P-gp. […] (D) In the efflux study, P388ADR cells were firstly incubated with 20 µM DOX for 45 min. […] At 60, 120, and 180 min, the cells were harvested, and the intracellular DOX level was measured. At 180 min, ** represents p < 0.01, and *** represents p < 0.001, both being relative to P388ADR incubated with DMSO only. […] N = 3 independent experiments. DMSO was used as a solvent control, and the highest amount used was 0.5%.
We investigated if methylated catechin derivatives could inhibit P-gp-mediated drug efflux in P-gp-overexpressing cells. […] Without a modulator, intracellularly, the DOX level was maintained at 80% and 11% after 180 min for P388 and P388ADR cells, respectively (Figure 2D). […] After 180 min of efflux, the intracellular DOX level could be maintained at 61% (p < 0.001), 59% (p < 0.01), 44 % (p < 0.001), and 37%, respectively (Figure 2D).

P-gp [4] = biological target: T1, P-gp (Homo sapiens, UniProt P08183); test: EC50 for reversing drug resistance in LCC6MDR cells (cell proliferation assay); settings: EC50 for Reversing MDR, LCC6MDR
T1 sequence (P08183 whole entry): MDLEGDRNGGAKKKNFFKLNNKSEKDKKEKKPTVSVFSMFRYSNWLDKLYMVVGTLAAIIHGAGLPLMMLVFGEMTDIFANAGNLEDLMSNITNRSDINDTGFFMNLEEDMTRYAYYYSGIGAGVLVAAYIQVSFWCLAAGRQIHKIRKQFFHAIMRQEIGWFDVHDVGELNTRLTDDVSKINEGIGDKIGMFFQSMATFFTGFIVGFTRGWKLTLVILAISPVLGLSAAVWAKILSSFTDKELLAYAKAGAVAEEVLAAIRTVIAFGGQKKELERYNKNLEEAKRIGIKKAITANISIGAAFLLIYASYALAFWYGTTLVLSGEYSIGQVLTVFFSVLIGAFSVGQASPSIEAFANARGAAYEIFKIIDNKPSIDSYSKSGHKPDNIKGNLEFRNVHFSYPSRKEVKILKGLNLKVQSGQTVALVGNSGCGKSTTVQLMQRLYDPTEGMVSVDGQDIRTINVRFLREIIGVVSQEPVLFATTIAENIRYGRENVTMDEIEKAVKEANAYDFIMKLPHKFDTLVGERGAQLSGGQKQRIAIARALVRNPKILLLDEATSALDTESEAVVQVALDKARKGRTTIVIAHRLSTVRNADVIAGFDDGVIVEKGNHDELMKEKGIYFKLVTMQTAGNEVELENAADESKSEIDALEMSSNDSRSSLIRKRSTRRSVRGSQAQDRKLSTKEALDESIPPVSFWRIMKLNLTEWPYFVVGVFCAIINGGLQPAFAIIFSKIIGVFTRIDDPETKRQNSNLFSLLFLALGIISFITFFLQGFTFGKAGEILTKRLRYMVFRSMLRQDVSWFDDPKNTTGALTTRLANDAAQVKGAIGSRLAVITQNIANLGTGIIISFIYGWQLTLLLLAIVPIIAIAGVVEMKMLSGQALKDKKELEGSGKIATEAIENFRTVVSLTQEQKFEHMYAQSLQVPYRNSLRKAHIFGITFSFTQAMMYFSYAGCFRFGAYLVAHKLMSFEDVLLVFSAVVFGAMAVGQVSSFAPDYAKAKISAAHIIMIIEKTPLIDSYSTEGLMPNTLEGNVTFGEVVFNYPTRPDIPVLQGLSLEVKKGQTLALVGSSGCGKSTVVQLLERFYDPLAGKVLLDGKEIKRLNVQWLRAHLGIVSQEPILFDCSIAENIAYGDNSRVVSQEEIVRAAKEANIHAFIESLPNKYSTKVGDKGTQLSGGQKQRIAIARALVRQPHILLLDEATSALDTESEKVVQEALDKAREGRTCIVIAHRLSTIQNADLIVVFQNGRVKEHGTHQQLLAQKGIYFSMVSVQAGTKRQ

P-gp [5] = biological target: T1, P-gp; design: expressed in transfected cells; host or cells: MDA435/LCC6MDR (human breast cancer line, gift of Dr. Robert Clarke); settings: Cpds at 1 μM; IC50 of PTX without/with modulator; cited from earlier work
MRP1 = settings: Cpds at 1 μM; IC50 of DOX without/with modulator; cited from earlier work
P-gp [6] = biological target: T1, P-gp; test: EC50 for reversing drug resistance in K562/P-gp cells (cell proliferation assay); settings: EC50 for Reversing MDR
K562 cells = test: Drug resistance level: IC50 of anticancer drugs in K562; assay type: cell-based; settings: Homo sapiens, K562, 72 h; 3 days incubation
Experimental: (§1) In the Western blot membrane, the total P-gp and β-actin expression in each lane was quantified with ImageJ software. The relative P-gp expression was an intensity ratio of P-gp band relative to the β-actin band. The relative P-gp expression of the resistant cell line relative to its respective wild type was presented as a bar chart. The plasma membrane P-gp levels of LCC6MDR and K562/P-gp relative to their wild types were determined through flow cytometry using antihuman P-gp-PE antibodies. (B) LCC6MDR and LCC6. (C) K562/P-gp and K562. (D) the drug resistance levels of three P-gp-overexpressing cell lines and their wild types were studied. The 3 pairs of cell lines were incubated with anticancer drugs paclitaxel (PTX), doxorubicin (DOX), and vincristine (VCR) for 3 days, and the % of cell survival was then determined. Their IC50 (nM) values were calculated using Prism 5.0. RF (relative fold) was a ratio of IC50 of anticancer drugs in a P-gp-overexpressing cell line relative to its respective wild type. N = 3 independent experiments. […] All cell lines were counterstained with DAPI. (E) LCC6 and LCC6MDR, (F) P388 and P338ADR, and (G) K562 and K562/P-gp. Bar = 8 µm. / = not determined.

K562/P-gp cells = test: Drug resistance level: IC50 of anticancer drugs in K562/P-gp; assay type: cell-based, human
Experimental: as §1

P-gp [7] = biological target: T1, P-gp; test: Vanadate-sensitive P-gp ATPase activity assay (P-gp-Glo); settings: 70 µM
fibroblast cells = system: fibroblast cells; design: method as in PMID 25985195, PMID 34597896; settings: cited from earlier work
P-gp [8] = system: P-gp; design: method as in PMID 25985195, PMID 34597896; settings: cited from earlier work
[9] = read-out: EC50 for Reversing MDR, DOX Resistance, P388ADR, concentration that reduces IC50 of DOX by half
[10] = read-out: EC50 for Reversing MDR, PTX Resistance, P388ADR, concentration that reduces IC50 of PTX by half
[11] = DOX Resistance, concentration that reduces IC50 of DOX by half
[12] = PTX Resistance, concentration that reduces IC50 of PTX by half
[13] = DOX Resistance, K562/P-gp, concentration that reduces IC50 of DOX by half
[14] = VCR Resistance, K562, concentration that reduces IC50 of VCR by half, column head prints K562

For COc1cc(OC)c2c(c1)OC(c1cc(OC)c(OC)c(OC)c1)C(OC(=O)C=Cc1cc(OC)c(OC)c(OC)c1)C2 (centres unmarked) [EGC23], the AUC(0-t) ([1]; ip, 30 mg/kg) was 7000 ng·h/mL, the Cmax ([1]; ip, 30 mg/kg) was 2210 ng/mL and the Tmax ([1]; ip, 30 mg/kg) was 1 h. It also gave a half-life ([1]; ip, 30 mg/kg) of 2.45 h, an AUC(0-inf) ([1]; ip, 30 mg/kg) of 7090 ng·h/mL and an AUC(0-t) ([1]; iv, 10 mg/kg) of 3190 ng·h/mL. The half-life ([1]; iv, 10 mg/kg) was 0.538 h, the AUC(0-inf) ([1]; iv, 10 mg/kg) was 3210 ng·h/mL and the EC50 (P-gp [2]; [9]) was […]. The EC50 (P-gp [2]; [10]) was […].

With COc1cc(OC)c2c(c1)O[C@H](c1cc(OC)c(OC)c(OC)c1)[C@@H](OC(=O)c1ccc(F)c(NC(=O)c3cc(OC)c(OC)c(OC)c3)c1)C2 [GC51] the “Relative intracellular DOX level (%)” value (P-gp [3]) was 59%, the EC50 (P-gp [4]; [11]) was 233 ± 36 nM and the EC50 (P-gp [4]; [12]) was 82 ± 14 nM. The AUC(0-t) ([1]; ip, 30 mg/kg) was 24500 ng·h/mL, the Cmax ([1]; ip, 30 mg/kg) was 6120 ng/mL and the Tmax ([1]; ip, 30 mg/kg) was 1 h. It also gave a half-life ([1]; ip, 30 mg/kg) of 3.83 h, an AUC(0-inf) ([1]; ip, 30 mg/kg) of 25700 ng·h/mL and an AUC(0-t) ([1]; iv, 10 mg/kg) of 13000 ng·h/mL. The half-life ([1]; iv, 10 mg/kg) was 1.52 h, the AUC(0-inf) ([1]; iv, 10 mg/kg) was 13600 ng·h/mL and the “LCC6MDR P-gp-modulating activity RF (relative fold)” value (P-gp [5]) was 52.6. The EC50 (P-gp [2]; [9]) was 335 ± 15 nM, the EC50 (P-gp [2]; [10]) was 496 ± 12 nM and the “2008MRP1 MRP1-modulating activity RF (relative fold)” value (MRP1) was 3.0. For the same compound, the EC50 (P-gp [6]; [13]) was 129 ± 36 nM and the EC50 (P-gp [6]; [14]) was 77 ± 7 nM.

In the case of CC[C@]1(O)C[C@H]2CN(CCc3c([nH]c4ccccc34)[C@@](C(=O)OC)(c3cc4c(cc3OC)N(C=O)[C@H]3[C@@](O)(C(=O)OC)[C@H](OC(C)=O)[C@]5(CC)C=CCN6CC[C@]43[C@@H]65)C2)C1 [VCR, vincristine], the IC50 (K562 cells) is reported as 0.5 ± 0.1 nM, the IC50 (K562/P-gp cells; Homo sapiens, K562, 72 h, 3 days incubation) is reported as 84.1 ± 6.4 nM and the “RF (relative fold)” value (K562/P-gp cells; IC50 in K562/P-gp relative to K562) is reported as 168.2.

For COc1cc(OC)c2c(c1)O[C@H](c1ccc(OC)c(OC)c1)[C@@H](OC(=O)c1ccc(F)c(NC(=O)c3cc(OC)c(OC)c(OC)c3)c1)C2 [C25], the “P-gp ATPase activity, fold change relative to basal” value (P-gp [7]) is listed as ≤ 1.6 fold, the IC50 (fibroblast cells) is listed as > 100000 nM and the “Relative intracellular DOX level (%)” value (P-gp [3]) is listed as 37%. For the same compound, the EC50 (P-gp [4]; [11]) was 180 ± 18 nM, the EC50 (P-gp [4]; [12]) was 91 ± 5 nM and the AUC(0-t) ([1]; ip, 30 mg/kg) was 21200 ng·h/mL. The Cmax ([1]; ip, 30 mg/kg) was 5260 ng/mL, the Tmax ([1]; ip, 30 mg/kg) was 1 h and the half-life ([1]; ip, 30 mg/kg) was 3.12 h. For the same compound, the AUC(0-inf) ([1]; ip, 30 mg/kg) was 21600 ng·h/mL, the AUC(0-t) ([1]; iv, 10 mg/kg) was 8870 ng·h/mL and the half-life ([1]; iv, 10 mg/kg) was 0.85 h. For the same compound, the AUC(0-inf) ([1]; iv, 10 mg/kg) was 8890 ng·h/mL, the “LCC6MDR P-gp-modulating activity RF (relative fold)” value (P-gp [5]) was 84.7 and the EC50 (P-gp [2]; [9]) was 260 ± 60 nM. The EC50 (P-gp [2]; [10]) was 216 ± 10 nM, the “2008MRP1 MRP1-modulating activity RF (relative fold)” value (MRP1) was 1.2 and the “effect on plasma membrane level of P-gp” value (P-gp [8]) was “did not affect”. The EC50 (P-gp [6]; [13]) was 93 ± 21 nM and the EC50 (P-gp [6]; [14]) was 60 ± 12 nM.
